In the assay the target is T1, Xanthine oxidase (XOD) (Bos taurus, UniProt P80457).
T1 construct: gene XDH; commercial XOD immobilized on polydopamine-modified hollow fiber (XOD@PDA@HF)
The experiment in a line: immobilized enzyme inhibition at […], hypoxanthine substrate, HPLC detection of uric acid. Format: biochemical.

T1 sequence (P80457 2-1332): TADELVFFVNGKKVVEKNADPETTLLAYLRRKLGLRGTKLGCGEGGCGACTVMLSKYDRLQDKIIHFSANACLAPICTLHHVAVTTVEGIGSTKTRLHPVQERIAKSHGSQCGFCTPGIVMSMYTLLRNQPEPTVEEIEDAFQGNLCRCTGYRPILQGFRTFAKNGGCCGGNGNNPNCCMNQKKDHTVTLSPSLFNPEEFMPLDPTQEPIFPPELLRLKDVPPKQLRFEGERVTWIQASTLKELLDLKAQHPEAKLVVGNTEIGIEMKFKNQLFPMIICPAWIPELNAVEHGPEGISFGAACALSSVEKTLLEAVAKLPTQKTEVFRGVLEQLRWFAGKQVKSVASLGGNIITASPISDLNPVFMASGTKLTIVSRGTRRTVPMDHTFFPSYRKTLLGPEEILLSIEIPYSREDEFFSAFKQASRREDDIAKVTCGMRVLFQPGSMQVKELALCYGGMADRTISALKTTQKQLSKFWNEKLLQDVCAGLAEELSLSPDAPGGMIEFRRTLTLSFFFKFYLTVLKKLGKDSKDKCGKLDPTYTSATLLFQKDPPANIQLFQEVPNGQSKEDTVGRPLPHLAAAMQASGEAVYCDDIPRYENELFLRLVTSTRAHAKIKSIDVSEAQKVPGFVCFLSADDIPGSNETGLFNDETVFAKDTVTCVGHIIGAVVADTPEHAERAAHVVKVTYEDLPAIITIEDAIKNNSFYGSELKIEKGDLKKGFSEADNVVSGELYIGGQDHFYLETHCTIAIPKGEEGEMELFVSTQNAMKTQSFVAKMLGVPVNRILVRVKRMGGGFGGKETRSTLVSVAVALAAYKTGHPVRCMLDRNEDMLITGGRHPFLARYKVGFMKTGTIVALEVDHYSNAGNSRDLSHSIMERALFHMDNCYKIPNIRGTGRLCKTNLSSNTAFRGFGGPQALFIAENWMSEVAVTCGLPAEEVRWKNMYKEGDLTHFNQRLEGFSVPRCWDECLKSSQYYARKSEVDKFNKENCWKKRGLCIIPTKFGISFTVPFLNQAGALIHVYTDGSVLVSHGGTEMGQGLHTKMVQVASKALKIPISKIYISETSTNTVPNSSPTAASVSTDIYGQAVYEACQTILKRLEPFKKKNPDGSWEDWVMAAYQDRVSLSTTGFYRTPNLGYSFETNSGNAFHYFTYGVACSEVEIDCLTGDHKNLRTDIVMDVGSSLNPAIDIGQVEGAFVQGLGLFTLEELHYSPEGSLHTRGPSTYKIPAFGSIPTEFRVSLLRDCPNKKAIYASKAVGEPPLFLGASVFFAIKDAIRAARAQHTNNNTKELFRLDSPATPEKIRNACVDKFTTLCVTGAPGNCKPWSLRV

Take `Oc1cc(O)c2c(c1)O[C@H](c1cc(O)c(O)c(O)c1)[C@H](O)C2` [Epigallocatechin]: at 1000 µM the inhibition was 54.92 ± 0.41%.

Turning to `O=c1c(O)c(-c2ccc(O)c(O)c2)oc2cc(O)cc(O)c12` [Quercetin], 1000 µM produced 79.9 ± 3.5% inhibition.

As to `O=c1cc(-c2ccc(O)cc2)oc2cc(O)cc(O)c12` [Apigenin], at 1000 µM the inhibition was 80.98 ± 0.64%.

Consider `O=c1c(-c2ccc(O)cc2)coc2c([C@@H]3O[C@H](CO)[C@@H](O)[C@H](O)[C@H]3O)c(O)ccc12` [Puerarin], for which the inhibition (as a rule, the change of the read-out against control, counted positive when it falls) at 1000 µM was 61.1 ± 6.26%.
